The values below come from US8138146B2, “Antiviral peptide and antiviral agent” (priority 2006, dated 2012).

What all share (type): cell-based
Data set [1] deals with HVT (turkey herpes virus). Kind of data set: HVT multiplication suppression, plaque assay in CEF cells. Conditions: for Ratio (relative ratio of virus titer, no peptide = 1) / Titer: HVT FC-126 strain in CEF cells; for Titer: six days; for viral multiplication suppression effect (antiviral activity), in words: HVT in CEF cells, peptide 10, 50, 100 μM, number and size of plaques.

Data set [2] relates to MDV (Marek's disease virus). The conditions noted are these: for antiviral activity (viral multiplication suppression effect) against MDV, in words: MDV in CEF cells, peptide 50 and 100 μM; for Ratio / Titer: MDV type 1 Md5 strain in CEF cells; for Titer: four days.
Data set [3] relates to MDCK (Madrin Darby Canine Kidney) cell. Put plainly: Cytotoxicity control, MDCK cells without virus (Example 4). Conditions: 48 hours. The method, then: The culture supernatant was removed from wells where a full sheet (monolayer) composed of MDCK cells was formed by the above culture. 2 mL of PBS was added to the wells and the wells were washed. This washing was repeated twice. Next, a viral solution prepared with MEM medium (no FBS added, containing 0.02% dextran and 1 μg/mL trypsin) so as to have 10^4 PFU/mL was used for inoculation at 0.1 mL per well, and culture was incubated in the presence of 5% CO2, at 34° C. for one hour, to adsorb the virus to the cells. After the incubation, was added 2 mL of MEM medium (no FBS added, containing 0.02% dextran and 1 μg/mL trypsin) containing the test peptide at a given concentration so as to have 50 μM and 10 μM final concentrations of peptide in each well after addition. Note that a well was prepared as a control plot (control), in which 2 mL of the above-mentioned MEM medium not containing peptide was added. In addition, as the control group for evaluating the cytotoxicity of the test peptide, 2 mL of MEM medium (no FBS added, containing 0.02% dextran and 1 μg/mL trypsin) containing the test peptide at a given concentration was added each to wells (with full sheet formed) containing MDCK cells to which the above-mentioned viral solution was not added (that is to say, not containing virus). Then incubation was carried out in the presence of 5% CO2 at 34° C. for 48 hours.

Like-named read-outs stand apart in the source and are kept apart here. No end group written: not given here.

Turning to “LPPLERLTLD RQARRNRRRRWR-CONH2 (LPPLERLTLDRQARRNRRRRWR-NH2) [Sample 2, NES … on the N-terminal side, NLS … on the C-terminal side; 22 residues]”, the “Ratio (relative ratio of virus titer, no peptide = 1)” value is given as 0.91 in data set [1] (peptide 10 μM), 0.59 in data set [1] (peptide 50 μM) and 0.57 in data set [1] (peptide 100 μM). Further, the Titer in data set [1] (peptide 10 μM) is recorded as 8.0 × 10^4 PFU/mL; in data set [1] (peptide 50 μM), 5.2 × 10^4 PFU/mL; in data set [1] (peptide 100 μM), 5.0 × 10^4 PFU/mL.
Turning to “LPPLERLTLD-CONH2 (LPPLERLTLD-NH2) [Comparative Sample 2, reference compound]”, in data set [1], the “viral multiplication suppression effect (antiviral activity), in words” value is recorded as “no viral multiplication suppression effect”.
With “RKKKRKV LALKAGLDI-CONH2 (RKKKRKVLALKAGLDI-NH2) [Sample 4, modified SV40 NLS plus modified mouse PKI NES with one leucine deleted; 16 residues]”, the “Ratio (relative ratio of virus titer, no peptide = 1)” value in data set [1] (peptide 10 μM) is recorded as 0.95; in data set [1] (peptide 50 μM) it was 0.47; in data set [1] (peptide 100 μM), 0.24. The Titer in data set [1] (peptide 10 μM) is on record as 1.8 × 10^4 PFU/mL; in data set [1] (peptide 50 μM), 9.0 × 10^3 PFU/mL; in data set [1] (peptide 100 μM), 4.5 × 10^3 PFU/mL; in data set [2] (peptide 50 μM), 4.27 × 10^6 TCID50; in data set [2] (peptide 100 μM), 3.16 × 10^6 TCID50. Besides, in data set [2], the “antiviral activity (viral multiplication suppression effect) against MDV, in words” value is listed as “satisfactory antiviral activity”. For the same substance, the figures for the Ratio in data set [2] (peptide 50 μM) and in data set [2] (peptide 100 μM) were 0.63 and 0.47, respectively.
“RKKKRKV-CONH2 (RKKKRKV-NH2) [Comparative Sample 4, reference compound]”: in data set [1], the “viral multiplication suppression effect (antiviral activity), in words” value is reported as “no viral multiplication suppression effect”.
For “RQARRNRRRRWR LPPLERLTLD-CONH2 (RQARRNRRRRWRLPPLERLTLD-NH2) [Sample 1, HIV REV-derived NLS on the N-terminal side, HIV-derived NES on the C-terminal side; 22 residues]”, the “Ratio (relative ratio of virus titer, no peptide = 1)” value in data set [1] (peptide 10 μM) is recorded as 0.75; in data set [1] (peptide 50 μM) it was 0.25; in data set [1] (peptide 100 μM) it was 0.13. Further, the Titer in data set [1] (peptide 10 μM) was 7.8 × 10^4 PFU/mL; in data set [1] (peptide 50 μM), 2.6 × 10^4 PFU/mL; in data set [1] (peptide 100 μM), 1.4 × 10^4 PFU/mL; in data set [2] (peptide 50 μM) it was 2.40 × 10^6 TCID50; in data set [2] (peptide 100 μM), 6.76 × 10^5 TCID50. The “antiviral activity (viral multiplication suppression effect) against MDV, in words” value in data set [2] is listed as “satisfactory antiviral activity”. The Ratio in data set [2] (peptide 50 μM) stood at 0.36; in data set [2] (peptide 100 μM), 0.1.
In the case of “RQARRNRRRRWR-CONH2 (RQARRNRRRRWR-NH2) [Comparative Sample 1, reference compound]”, the “viral multiplication suppression effect (antiviral activity), in words” value in data set [1] is “no viral multiplication suppression effect”.
The same measure, in the same setting: next, “YGRKKRRQRRR-CONH2 (YGRKKRRQRRR-NH2) [Comparative Sample 3, reference compound]”: “no viral multiplication suppression effect”.
“YGRKKRRQRRRLPPLERLTLD-NH2 [Sample 3, YGRKKRRQRRR LPPLERLTLD-CONH2]”: the cytotoxicity result in data set [3] is given as “no cytotoxicity was observed”.
